# Data as given in patent publication US10952433B2, “Solutions for enhancing the effectiveness of insecticides and fungicides on living plants and related methods” (priority 2015, dated 2021).
# Where two headings read alike, the source gives them in different places.
# What was measured:
# [1] = tested on: lepidopteran larvae: cabbage loopers (Trichoplusia ni) and beet armyworms (Spodoptera exigua); format: in vivo; details: plants
# Procedure, shortened: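 Romaine lettuce plants 2-3 inches tall were sprayed with 10 mL of insecticide (ppm) with buffer, amine oxide or buffered amine oxide at 200:1, then infested with 15 T. ni and 15 S. exigua larvae (5th-6th instar) per container. Leaf surface damage scored visually in 5% increments after 24 h.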
# [2] = tested on: lepidopteran larvae: cabbage loopers (Trichoplusia ni) and beet armyworms (Spodoptera exigua); format: in vivo; details: leaf discs
# Procedure, shortened: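 Romaine lettuce leaf discs (⅝ inch) dipped about one second in treatment solution and infested with four cabbage loopers and four beet armyworms (3rd-4th instar) per container. Held dark at 15 °C, 80% RH; percent disc-area damage scored visually in 5% increments at 24, 48 and 72 h.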
# [3] = insecticide + CO3 buffer 200:1, no amine oxide, PPM: Chlorantranilopril 60, Acephate 70, Methoxyfenozide 100, Spinosad 30, Permethrin 10, Indoxacarb 50
# [4] = insecticide + PO4 buffer 200:1, no amine oxide, PPM: Chlorantranilopril 60, Acephate 70, Methoxyfenozide 100, Spinosad 30, Permethrin 10, Indoxacarb 50
# [5] = insecticide + amine oxide 12, no buffer, 200:1, PPM: Chlorantranilopril 60, Acephate 70, Methoxyfenozide 100, Spinosad 30, Permethrin 10, Indoxacarb 50
# [6] = insecticide + amine oxide 1218, no buffer, 200:1, PPM: Chlorantranilopril 60, Acephate 70, Methoxyfenozide 100, Spinosad 30, Permethrin 10, Indoxacarb 50
# [7] = insecticide + buffered amine oxide system CO3, 12, 200:1, PPM: Chlorantranilopril 60, Acephate 70, Methoxyfenozide 100, Spinosad 30, Permethrin 10, Indoxacarb 50
# [8] = insecticide + buffered amine oxide system CO3, 1218, 200:1, PPM: Chlorantranilopril 60, Acephate 70, Methoxyfenozide 100, Spinosad 30, Permethrin 10, Indoxacarb 50
# [9] = insecticide + buffered amine oxide system PO4, 12, 200:1, PPM: Chlorantranilopril 60, Acephate 70, Methoxyfenozide 100, Spinosad 30, Permethrin 10, Indoxacarb 50
# [10] = insecticide + buffered amine oxide system PO4, 1218, 200:1, PPM: Chlorantranilopril 60, Acephate 70, Methoxyfenozide 100, Spinosad 30, Permethrin 10, Indoxacarb 50
# [11] = insecticide alone, highest, PPM: Chlorantranilopril 120, Acephate 140, Methoxyfenozide 200, Spinosad 60, Permethrin 20, Indoxacarb 100
# [12] = insecticide alone, increased, PPM: Chlorantranilopril 90, Acephate 105, Methoxyfenozide 150, Spinosad 45, Permethrin 15, Indoxacarb 75
# [13] = insecticide alone, PPM: Chlorantranilopril 60, Acephate 70, Methoxyfenozide 100, Spinosad 30, Permethrin 10, Indoxacarb 50
compound,measurement,setting,value
COc1cccc(C(=O)NN(C(=O)c2cc(C)cc(C)c2)C(C)(C)C)c1C [Methoxyfenozide],Percent Lepidopteran Damage to Romaine Lettuce 24 hr,[1]; [3],13.5%
same,Percent Lepidopteran Damage to Romaine Lettuce 24 hr,[1]; [4],22.0%
same,Percent Lepidopteran Damage to Romaine Lettuce 24 hr,[1]; [5],28.0%
same,Percent Lepidopteran Damage to Romaine Lettuce 24 hr,[1]; [6],13.0%
same,Percent Lepidopteran Damage to Romaine Lettuce 24 hr,[1]; [7],8.0%
same,Percent Lepidopteran Damage to Romaine Lettuce 24 hr,[1]; [8],9.0%
same,Percent Lepidopteran Damage to Romaine Lettuce 24 hr,[1]; [9],7.5%
same,Percent Lepidopteran Damage to Romaine Lettuce 24 hr,[1]; [10],4.5%
same,Percent Lepidopteran Damage to Romaine Lettuce 24 hr,[1]; [11],23.5%
same,Percent Lepidopteran Damage to Romaine Lettuce 24 hr,[1]; [12],43.0%
same,Percent Lepidopteran Damage to Romaine Lettuce 24 hr,[1]; [13],29.5%
same,Percent Lepidopteran Damage to Romaine Lettuce 24 hr,[2]; [3],96.0%
same,Percent Lepidopteran Damage to Romaine Lettuce 24 hr,[2]; [4],100.0%
same,Percent Lepidopteran Damage to Romaine Lettuce 24 hr,[2]; [5],79.5%
same,Percent Lepidopteran Damage to Romaine Lettuce 24 hr,[2]; [6],72.0%
same,Percent Lepidopteran Damage to Romaine Lettuce 24 hr,[2]; [7],42.5%
same,Percent Lepidopteran Damage to Romaine Lettuce 24 hr,[2]; [8],43.0%
same,Percent Lepidopteran Damage to Romaine Lettuce 24 hr,[2]; [9],54.5%
same,Percent Lepidopteran Damage to Romaine Lettuce 24 hr,[2]; [10],85.0%
same,Percent Lepidopteran Damage to Romaine Lettuce 24 hr,[2]; [11],100.0%
same,Percent Lepidopteran Damage to Romaine Lettuce 24 hr,[2]; [12],100.0%
same,Percent Lepidopteran Damage to Romaine Lettuce 24 hr,[2]; [13],84.0%
same,Percent Lepidopteran Damage to Romaine Lettuce 48 hr,[2]; [3],99.5%
same,Percent Lepidopteran Damage to Romaine Lettuce 48 hr,[2]; [4],100.0%
same,Percent Lepidopteran Damage to Romaine Lettuce 48 hr,[2]; [5],82.5%
same,Percent Lepidopteran Damage to Romaine Lettuce 48 hr,[2]; [6],80.5%
same,Percent Lepidopteran Damage to Romaine Lettuce 48 hr,[2]; [7],51.5%
same,Percent Lepidopteran Damage to Romaine Lettuce 48 hr,[2]; [8],67.0%
same,Percent Lepidopteran Damage to Romaine Lettuce 48 hr,[2]; [9],67.5%
same,Percent Lepidopteran Damage to Romaine Lettuce 48 hr,[2]; [10],87.0%
same,Percent Lepidopteran Damage to Romaine Lettuce 48 hr,[2]; [11],100.0%
same,Percent Lepidopteran Damage to Romaine Lettuce 48 hr,[2]; [12],100.0%
same,Percent Lepidopteran Damage to Romaine Lettuce 48 hr,[2]; [13],94.0%
same,Percent Lepidopteran Damage to Romaine Lettuce 72 hr,[2]; [3],100.0%
same,Percent Lepidopteran Damage to Romaine Lettuce 72 hr,[2]; [4],100.0%
same,Percent Lepidopteran Damage to Romaine Lettuce 72 hr,[2]; [5],87.0%
same,Percent Lepidopteran Damage to Romaine Lettuce 72 hr,[2]; [6],87.5%
same,Percent Lepidopteran Damage to Romaine Lettuce 72 hr,[2]; [7],57.0%
same,Percent Lepidopteran Damage to Romaine Lettuce 72 hr,[2]; [8],73.5%
same,Percent Lepidopteran Damage to Romaine Lettuce 72 hr,[2]; [9],73.0%
same,Percent Lepidopteran Damage to Romaine Lettuce 72 hr,[2]; [10],88.0%
same,Percent Lepidopteran Damage to Romaine Lettuce 72 hr,[2]; [11],100.0%
same,Percent Lepidopteran Damage to Romaine Lettuce 72 hr,[2]; [12],100.0%
same,Percent Lepidopteran Damage to Romaine Lettuce 72 hr,[2]; [13],96.0%
